# PMC11823630, “In vitro potentiation of tetracyclines in Pseudomonas aeruginosa by RW01, a new cyclic peptide” (Antimicrobial Agents and Chemotherapy, 2024)
# Where a SMILES comes first, the peptide text is derived from it.
# Assays:
# PAO1 one-step mutants = test: MIC, Sensititre custom plate, mutants summarised as a group; assay type: cell-based, Pseudomonas aeruginosa; details: mutants generated by minocycline alone
# Experimental: Selection of resistant mutants was performed for minocycline with and without RW01 in three independent replicates for wild-type P. aeruginosa reference strain PAO1. Tubes containing Mueller-Hinton broth (MHB) were inoculated and incubated for 24 h at 37°C. Afterward, 1/100 dilution of each tube was incubated at 37°C in MHB to late-exponential growth phase, measured by spectrophotometry at OD600. […] A control plate without antibiotic was included as inoculum control. After overnight incubation, colony counting of each treatment was performed to analyze the generation of resistant population. The mutant prevention concentration (MPC) was defined as the lowest concentration of antibiotic yielding no growth of resistant mutants. Selected mutants were checked for susceptibility profiles by using a Sensititre custom plate (Thermo Fisher Scientific, Massachusetts, USA) for Gram-negative bacteria, following the manufacturer’s instructions.
# P. aeruginosa 125A = test: MIC, CLSI broth microdilution in BD Phoenix AST Broth; assay type: cell-based, Pseudomonas aeruginosa; details: strain 125A; antibiotic with RW01 at 100 mg/L
# Experimental: (§1) MIC for RW01 was also tested.
# (§2) FIC of RW01 (FICRW01)=MIC of RW01 in combination/MIC of RW01 alone,FIC of antibiotic (FICATB)=MIC of ATB in combination/MIC of ATB alone,FICI=FICRW01 +FICATB.
# (§3) FICI was interpreted as follows: synergistic effect if FICI is ≤0.5; additive effect if 0.5 < FICI ≤ 1.0; indifferent effect if 1.0 < FICI ≤ 2.0; and finally, antagonistic effect if FICI is >2.0. The average FICI considering the antibiotic MIC (no growth in any of the replicates) at different concentrations of RW01 was calculated ([28]).
# P. aeruginosa 125B = test: as above; assay type: cell-based, Pseudomonas aeruginosa; details: strain 125B; antibiotic with RW01 at 100 mg/L
# Experimental: as §1, §2, §3
# P. aeruginosa 41A = test: as above; assay type: cell-based, Pseudomonas aeruginosa; details: strain 41A
# Experimental: as §1, §2, §3
# P. aeruginosa 41B = test: as above; assay type: cell-based, Pseudomonas aeruginosa; details: strain 41B
# Experimental: as §1, §2, §3
# P. aeruginosa PAO1 = test: as above; assay type: cell-based, Pseudomonas aeruginosa; details: strain PAO1; antibiotic with RW01 at 100 mg/L
# Experimental: as §1, §2, §3
# P. aeruginosa PAOUW = test: as above; assay type: cell-based, Pseudomonas aeruginosa; details: strain PAOUW; antibiotic with RW01 at 100 mg/L
# Experimental: as §1, §2, §3
# P. aeruginosa PAOUW∆oprF = test: as above; assay type: cell-based, Pseudomonas aeruginosa
# Experimental: as §1, §2, §3
# P. aeruginosa PAOΔmexR = test: as above; assay type: cell-based, Pseudomonas aeruginosa
# Experimental: as §1, §2, §3
# P. aeruginosa PAOΔmexZ = test: as above; assay type: cell-based, Pseudomonas aeruginosa; details: strain PAOΔmexZ
# Experimental: as §1, §2, §3
# P. aeruginosa PAOΔoprM = test: as above; assay type: cell-based, Pseudomonas aeruginosa
# Experimental: as §1, §2, §3
# [1] = tested on: PAO1 mutant MIN1_RW01_1, pmrB(Y98N); test: MIC, E-test on MHA; assay type: cell-based; details: Pseudomonas aeruginosa, PAO1, read-out: MIC, E-test
# [2] = tested on: PAO1 mutant MIN1_RW01_2, mexR(G58E), pilB(G326D), hutC(Y181X); test: MIC, E-test on MHA; assay type: cell-based; details: Pseudomonas aeruginosa, PAO1, read-out: MIC, E-test
# [3] = tested on: PAO1 mutant MIN1_RW01_3, pmrB(V215L); test: MIC, E-test on MHA; assay type: cell-based; details: Pseudomonas aeruginosa, PAO1, read-out: MIC, E-test
# [4] = tested on: PAO1 mutant MIN1_RW01_4, pmrB(F124L); test: MIC, E-test on MHA; assay type: cell-based; details: Pseudomonas aeruginosa, PAO1, read-out: MIC, E-test
# [5] = tested on: PAO1 mutant MIN2_RW01_1, pmrB(V215L); test: MIC, E-test on MHA; assay type: cell-based; details: Pseudomonas aeruginosa, PAO1, read-out: MIC, E-test
# [6] = tested on: PAO1 mutant MIN2_RW01_2, pmrB(M292T); test: MIC, E-test on MHA; assay type: cell-based; details: Pseudomonas aeruginosa, PAO1, read-out: MIC, E-test
# [7] = tested on: PAO1 mutant MIN2_RW01_3, parS(V152A); test: MIC, E-test on MHA; assay type: cell-based; details: Pseudomonas aeruginosa, PAO1, read-out: MIC, E-test
# [8] = tested on: PAO1 mutant MIN2_RW01_4, pmrB(M292T); test: MIC, E-test on MHA; assay type: cell-based; details: Pseudomonas aeruginosa, PAO1, read-out: MIC, E-test
# [9] = tested on: PAO1 mutant MIN4_RW01_1, pmrB(R429H); test: MIC, E-test on MHA; assay type: cell-based; details: Pseudomonas aeruginosa, PAO1, read-out: MIC, E-test
# [10] = tested on: PAO1 mutant MIN4_RW01_2, pmrB(F124S); test: MIC, E-test on MHA; assay type: cell-based; details: Pseudomonas aeruginosa, PAO1, read-out: MIC, E-test
# [11] = tested on: PAO1 mutant MIN4_RW01_3, pmrB(M292T); test: MIC, E-test on MHA; assay type: cell-based; details: Pseudomonas aeruginosa, PAO1, read-out: MIC, E-test
# [12] = tested on: PAO1 mutant MIN4_RW01_4, pmrB(Y98N); test: MIC, E-test on MHA; assay type: cell-based; details: Pseudomonas aeruginosa, PAO1, read-out: MIC, E-test
# [13] = tested on: PAO1 mutant MIN8_1, nalD(R3C), pilM(Q62X); test: MIC, E-test on MHA; assay type: cell-based; details: Pseudomonas aeruginosa, PAO1, read-out: MIC, E-test
# [14] = tested on: PAO1 mutant MIN8_2, pilZ(nt18InsT); test: MIC, E-test on MHA; assay type: cell-based; details: Pseudomonas aeruginosa, PAO1, read-out: MIC, E-test
# [15] = tested on: PAO1 mutant MIN8_3, pilZ(nt18InsT); test: MIC, E-test on MHA; assay type: cell-based; details: Pseudomonas aeruginosa, PAO1, read-out: MIC, E-test
# [16] = tested on: PAO1 mutant MIN8_4, pilZ(nt18InsT); test: MIC, E-test on MHA; assay type: cell-based; details: Pseudomonas aeruginosa, PAO1, read-out: MIC, E-test
# [17] = tested on: PAO1 mutant MIN16_1, nalD(T43P); test: MIC, E-test on MHA; assay type: cell-based; details: Pseudomonas aeruginosa, PAO1, read-out: MIC, E-test
# [18] = tested on: PAO1 mutant MIN16_2, nalC(aa9∆4), pilQ(nt46∆1); test: MIC, E-test on MHA; assay type: cell-based; details: Pseudomonas aeruginosa, PAO1, read-out: MIC, E-test
# [19] = tested on: PAO1 mutant MIN16_3, nfxB(nt79∆14), pilB(N349K); test: MIC, E-test on MHA; assay type: cell-based; details: Pseudomonas aeruginosa, PAO1, read-out: MIC, E-test
# [20] = tested on: PAO1 mutant MIN16_4, nalC(T50P), pilM(Q62X); test: MIC, E-test on MHA; assay type: cell-based; details: Pseudomonas aeruginosa, PAO1, read-out: MIC, E-test
# [21] = tested on: PAO1 mutant MIN32_1, mexR(R63H), pilB(N349K), PA0646(V316G); test: MIC, E-test on MHA; assay type: cell-based; details: Pseudomonas aeruginosa, PAO1, read-out: MIC, E-test
# C57BL/6J females [22] = test: In vivo acute toxicity; set-up: species or system mice; details: single ip dose of 0.2 mL at 250 or 500 mg/L; n = 6 per group; observed 7 days
# Experimental: (§4) To study the acute toxicity of RW01, two groups of n = 6 C57BL/6J females (≈20 g) were treated intraperitoneally (ip) with a single dose of 0.2 mL of 250 and 500 mg/L concentrations of RW01, respectively. After administration and for 7 days, the following indicative signs of pain were assessed: reduced water (dehydration), food intake, isolation, self-mutilation, tremors/spasms, dyspnea, physical activity (increased/reduced), chromodacryorrhea, muscle stiffness, piloerection, teeth grinding, and weight loss. For cumulative toxicity determination, a group of n = 6, 7-week-old healthy C57BL/6J females was treated ip, with a 0.2 mL single dose per day for 3 days at a concentration equivalent to 500 mg/L. After administration and for 7 days, the same indicative signs of pain/toxicity detailed in the acute toxicity studies were evaluated.
# C57BL/6J females [23] = test: In vivo cumulative toxicity; set-up: species or system mice; details: ip 0.2 mL once a day for 3 days at 500 mg/L; n = 6; observed 7 days
# Experimental: as §4
# [24] = Pseudomonas aeruginosa, agent alone, 37°C, 18–22 h, three biological replicates
# [25] = antibiotic with RW01 at 100 mg/L
# [26] = strain PAOUWΔoprF (printed PAOΔoprF), antibiotic with RW01 at 100 mg/L
# [27] = strain PAOΔmexR, antibiotic with RW01 at 100 mg/L
# [28] = strain PAOΔoprM, antibiotic with RW01 at 100 mg/L
molecule,measurement,setting,value
colistin,colistin MIC vs wild type,PAO1 one-step mutants,remained unchanged
"CN(C)[C@@H]1C(O)=C(C(N)=O)C(=O)[C@@]2(O)C(O)=C3C(=O)c4c(O)cccc4[C@@](C)(O)[C@H]3C[C@@H]12 [Tetracycline, tetracycline]",FICI-determined effect,P. aeruginosa 125A,Synergy (synergistic effect if FICI is ≤0.5)
same,FICI,P. aeruginosa 125B,0.445
same,FICI-determined effect,P. aeruginosa 125B,Synergy (synergistic effect if FICI is ≤0.5)
same,MIC,P. aeruginosa 41A; [24],16 µg/mL
same,FICI-determined effect,P. aeruginosa 41A; [25],Additivity (additive effect if 0.5 < FICI ≤ 1.0)
same,MIC,P. aeruginosa 41B; [24],16 µg/mL
same,FICI-determined effect,P. aeruginosa 41B; [25],Additivity (additive effect if 0.5 < FICI ≤ 1.0)
same,FICI,P. aeruginosa PAO1,0.445
same,FICI-determined effect,P. aeruginosa PAO1,Synergy (synergistic effect if FICI is ≤0.5)
same,FICI-determined effect,P. aeruginosa PAOUW,Synergy (synergistic effect if FICI is ≤0.5)
same,FICI,P. aeruginosa PAOUW∆oprF; [26],0.223
same,FICI-determined effect,P. aeruginosa PAOUW∆oprF; [26],Synergy (synergistic effect if FICI is ≤0.5)
same,MIC,"P. aeruginosa PAOUW∆oprF; strain PAOUWΔoprF, agent alone, 37°C, 18–22 h, three biological replicates",16 µg/mL
same,MIC,P. aeruginosa PAOΔmexR; Pseudomonas aeruginosa,16 µg/mL
same,Antibiotic MIC + RW01 100 mg/L,"P. aeruginosa PAOΔmexR; strain PAOΔmexR, MIC of the antibiotic with fixed 100 mg/L RW01",4 µg/mL
same,FICI,P. aeruginosa PAOΔmexR; [27],0.348
same,FICI-determined effect,P. aeruginosa PAOΔmexR; [27],Synergy (synergistic effect if FICI is ≤0.5)
same,MIC,P. aeruginosa PAOΔmexZ; [24],16 µg/mL
same,FICI,P. aeruginosa PAOΔmexZ; [25],0.223
same,FICI-determined effect,P. aeruginosa PAOΔmexZ; [25],Synergy (synergistic effect if FICI is ≤0.5)
same,MIC,P. aeruginosa PAOΔoprM; Pseudomonas aeruginosa,1 µg/mL
same,Antibiotic MIC + RW01 100 mg/L,"P. aeruginosa PAOΔoprM; strain PAOΔoprM, MIC of the antibiotic with fixed 100 mg/L RW01",0.5 µg/mL
same,FICI,P. aeruginosa PAOΔoprM; [28],0.598
same,FICI-determined effect,P. aeruginosa PAOΔoprM; [28],Additivity (additive effect if 0.5 < FICI ≤ 1.0)
same,MIC,[1],192 µg/mL
same,MIC,[2],256 µg/mL
same,MIC,[3],256 µg/mL
same,MIC,[4],64 µg/mL
same,MIC,[5],128 µg/mL
same,MIC,[6],192 µg/mL
same,MIC,[7],256 µg/mL
same,MIC,[8],96 µg/mL
same,MIC,[9],256 µg/mL
same,MIC,[10],64 µg/mL
same,MIC,[11],256 µg/mL
same,MIC,[12],96 µg/mL
same,MIC,[13],256 µg/mL
same,MIC,[14],256 µg/mL
same,MIC,[15],64 µg/mL
same,MIC,[16],64 µg/mL
same,MIC,[17],256 µg/mL
same,MIC,[18],96 µg/mL
same,MIC,[19],128 µg/mL
same,MIC,[20],64 µg/mL
same,MIC,[21],256 µg/mL
"N=C(N)NCCC[C@@H]1NC(=O)[C@H]2C[C@H](N)CN2C(=O)[C@H](Cc2c[nH]c3ccccc23)NC(=O)[C@H](CCCNC(=N)N)NC(=O)[C@H]2CCCN2C(=O)[C@H](Cc2c[nH]c3ccccc23)NC1=O [RW01] (HELM PEPTIDE1{R.W.[dP].R.W.[N[C@H]1C[C@H](C(=O)[*:2])N([*:1])C1]}$PEPTIDE1,PEPTIDE1,1:R1-6:R2$$$V2.0)","signs of pain/toxicity, acute toxicity",C57BL/6J females [22],None of the doses tested of RW01 showed any of the 11 symptoms indicative of pain/toxicity
same,"signs of pain/toxicity, cumulative toxicity",C57BL/6J females [23],None of the doses tested of RW01 showed any of the 11 symptoms indicative of pain/toxicity
